In ChEMBL document CHEMBL1147964, “Double mode of inhibition-inducing interactions of 1,4-naphthoquinone with urease: arylation versus oxidation of enzyme thiols” (Bioorg Med Chem, 2007):

Legend:
[1] = target: Urease (Canavalia ensiformis) (UniProt P07374); assay: Reactivation of jack bean urease activity in presence of DTT after 40 mins
[2] = target: Urease (Canavalia ensiformis) (UniProt P07374); assay: Inhibition of jack bean urease assessed as residual activity at 30 uM
[3] = target: Urease (Canavalia ensiformis) (UniProt P07374); assay: Inhibition of jack bean urease assessed as residual activity at 50 uM
[4] = target: Urease (Canavalia ensiformis) (UniProt P07374); assay: Inhibition of jack bean urease assessed as residual activity at 85 uM

Urease (Canavalia ensiformis), sequence (P07374 whole entry, looked up): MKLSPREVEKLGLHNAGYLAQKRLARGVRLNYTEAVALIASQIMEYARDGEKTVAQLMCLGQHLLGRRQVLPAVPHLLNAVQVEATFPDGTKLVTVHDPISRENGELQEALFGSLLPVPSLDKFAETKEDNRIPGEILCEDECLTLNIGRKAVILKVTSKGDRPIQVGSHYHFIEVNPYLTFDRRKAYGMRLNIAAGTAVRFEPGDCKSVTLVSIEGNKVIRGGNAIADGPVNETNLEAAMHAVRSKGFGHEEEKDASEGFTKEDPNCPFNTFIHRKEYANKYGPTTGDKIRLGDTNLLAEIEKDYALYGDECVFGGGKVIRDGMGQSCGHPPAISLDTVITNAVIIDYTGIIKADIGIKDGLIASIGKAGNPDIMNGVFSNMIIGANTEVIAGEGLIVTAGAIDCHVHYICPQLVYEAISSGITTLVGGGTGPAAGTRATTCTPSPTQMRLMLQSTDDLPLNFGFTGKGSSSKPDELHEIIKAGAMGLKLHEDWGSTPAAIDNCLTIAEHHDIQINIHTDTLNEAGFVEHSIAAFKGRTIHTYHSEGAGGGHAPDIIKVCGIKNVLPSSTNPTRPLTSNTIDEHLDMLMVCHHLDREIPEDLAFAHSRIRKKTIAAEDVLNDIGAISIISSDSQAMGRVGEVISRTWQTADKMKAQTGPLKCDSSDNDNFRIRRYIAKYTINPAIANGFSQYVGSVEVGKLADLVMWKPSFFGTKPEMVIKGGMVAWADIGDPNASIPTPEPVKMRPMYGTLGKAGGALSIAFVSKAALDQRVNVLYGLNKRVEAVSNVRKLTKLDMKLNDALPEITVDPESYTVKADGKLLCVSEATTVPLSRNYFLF

`O=C1C=CC(=O)c2ccccc21` was tested, and the Activity [1] was 40%, the Activity [2] was 40% and the Activity [3] was 24%. For the same molecule, the Activity [4] was 7%.
